Tests used:
[1] = target: Tyrosine-protein kinase Mer (Homo sapiens) (UniProt Q12866); test: Inhibition of human Mer at 10 uM after 60 mins by TR-FRET assay; values are per cent of control
[2] = target: Mitogen-activated protein kinase 10 (Homo sapiens, UniProt P53779); test: Inhibition of recombinant JNK3 after 60 mins by TR-FRET assay
[3] = target: T1, Aurora kinase A (Homo sapiens) (UniProt O14965); test: Inhibition of Aurora A at 10 uM after 60 mins by TR-FRET assay
T1 sequence (whole entry): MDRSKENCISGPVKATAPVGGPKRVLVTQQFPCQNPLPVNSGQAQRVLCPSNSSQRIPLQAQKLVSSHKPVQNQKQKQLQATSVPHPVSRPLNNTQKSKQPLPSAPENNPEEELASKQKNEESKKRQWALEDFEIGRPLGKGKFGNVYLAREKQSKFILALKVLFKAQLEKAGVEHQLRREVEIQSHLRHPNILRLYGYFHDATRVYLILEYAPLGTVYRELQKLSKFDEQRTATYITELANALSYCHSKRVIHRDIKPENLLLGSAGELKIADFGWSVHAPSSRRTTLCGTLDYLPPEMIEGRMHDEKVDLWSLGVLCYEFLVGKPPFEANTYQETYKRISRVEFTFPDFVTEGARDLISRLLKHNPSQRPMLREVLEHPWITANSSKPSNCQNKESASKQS

[4] = target: T2, Serine/threonine-protein kinase Chk1 (Homo sapiens) (UniProt O14757); test: Inhibition of CHEK1 at 10 uM after 60 mins by TR-FRET assay
T2 sequence (whole entry): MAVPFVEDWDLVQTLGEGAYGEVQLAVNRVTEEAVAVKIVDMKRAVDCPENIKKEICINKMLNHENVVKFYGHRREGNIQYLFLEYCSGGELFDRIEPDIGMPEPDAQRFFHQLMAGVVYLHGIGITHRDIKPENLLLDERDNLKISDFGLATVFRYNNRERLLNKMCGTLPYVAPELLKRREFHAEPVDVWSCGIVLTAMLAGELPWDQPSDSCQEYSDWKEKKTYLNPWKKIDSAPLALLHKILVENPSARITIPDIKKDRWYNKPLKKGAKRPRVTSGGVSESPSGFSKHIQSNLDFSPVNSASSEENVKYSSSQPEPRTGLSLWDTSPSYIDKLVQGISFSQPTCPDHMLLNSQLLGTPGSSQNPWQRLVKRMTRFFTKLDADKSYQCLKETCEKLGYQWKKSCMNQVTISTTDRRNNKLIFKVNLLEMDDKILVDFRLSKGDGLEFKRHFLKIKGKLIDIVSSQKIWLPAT

[5] = target: Dual specificity protein kinase CLK1 (Homo sapiens) (UniProt P49759); test: Inhibition of CLK1 at 10 uM after 60 mins by TR-FRET assay
Sequence of Dual specificity protein kinase CLK1 (Homo sapiens) (P49759 whole entry, looked up): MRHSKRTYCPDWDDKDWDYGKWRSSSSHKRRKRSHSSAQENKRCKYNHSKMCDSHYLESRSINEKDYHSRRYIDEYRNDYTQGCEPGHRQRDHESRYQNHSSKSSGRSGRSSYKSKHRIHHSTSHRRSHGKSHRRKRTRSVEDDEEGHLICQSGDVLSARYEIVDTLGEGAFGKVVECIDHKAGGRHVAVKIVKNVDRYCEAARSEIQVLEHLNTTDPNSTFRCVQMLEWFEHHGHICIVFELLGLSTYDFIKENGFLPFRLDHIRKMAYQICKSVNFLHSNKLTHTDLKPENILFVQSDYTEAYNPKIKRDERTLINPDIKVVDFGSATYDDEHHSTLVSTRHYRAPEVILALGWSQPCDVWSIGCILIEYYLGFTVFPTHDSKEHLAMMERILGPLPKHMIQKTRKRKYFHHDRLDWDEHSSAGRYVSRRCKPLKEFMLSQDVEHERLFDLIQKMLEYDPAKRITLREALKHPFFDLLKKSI

[6] = target: Tyrosine-protein kinase JAK1 (Homo sapiens) (UniProt P23458); test: Inhibition of JAK1 at 10 uM after 60 mins by TR-FRET assay
Sequence of Tyrosine-protein kinase JAK1 (Homo sapiens) (P23458 whole entry): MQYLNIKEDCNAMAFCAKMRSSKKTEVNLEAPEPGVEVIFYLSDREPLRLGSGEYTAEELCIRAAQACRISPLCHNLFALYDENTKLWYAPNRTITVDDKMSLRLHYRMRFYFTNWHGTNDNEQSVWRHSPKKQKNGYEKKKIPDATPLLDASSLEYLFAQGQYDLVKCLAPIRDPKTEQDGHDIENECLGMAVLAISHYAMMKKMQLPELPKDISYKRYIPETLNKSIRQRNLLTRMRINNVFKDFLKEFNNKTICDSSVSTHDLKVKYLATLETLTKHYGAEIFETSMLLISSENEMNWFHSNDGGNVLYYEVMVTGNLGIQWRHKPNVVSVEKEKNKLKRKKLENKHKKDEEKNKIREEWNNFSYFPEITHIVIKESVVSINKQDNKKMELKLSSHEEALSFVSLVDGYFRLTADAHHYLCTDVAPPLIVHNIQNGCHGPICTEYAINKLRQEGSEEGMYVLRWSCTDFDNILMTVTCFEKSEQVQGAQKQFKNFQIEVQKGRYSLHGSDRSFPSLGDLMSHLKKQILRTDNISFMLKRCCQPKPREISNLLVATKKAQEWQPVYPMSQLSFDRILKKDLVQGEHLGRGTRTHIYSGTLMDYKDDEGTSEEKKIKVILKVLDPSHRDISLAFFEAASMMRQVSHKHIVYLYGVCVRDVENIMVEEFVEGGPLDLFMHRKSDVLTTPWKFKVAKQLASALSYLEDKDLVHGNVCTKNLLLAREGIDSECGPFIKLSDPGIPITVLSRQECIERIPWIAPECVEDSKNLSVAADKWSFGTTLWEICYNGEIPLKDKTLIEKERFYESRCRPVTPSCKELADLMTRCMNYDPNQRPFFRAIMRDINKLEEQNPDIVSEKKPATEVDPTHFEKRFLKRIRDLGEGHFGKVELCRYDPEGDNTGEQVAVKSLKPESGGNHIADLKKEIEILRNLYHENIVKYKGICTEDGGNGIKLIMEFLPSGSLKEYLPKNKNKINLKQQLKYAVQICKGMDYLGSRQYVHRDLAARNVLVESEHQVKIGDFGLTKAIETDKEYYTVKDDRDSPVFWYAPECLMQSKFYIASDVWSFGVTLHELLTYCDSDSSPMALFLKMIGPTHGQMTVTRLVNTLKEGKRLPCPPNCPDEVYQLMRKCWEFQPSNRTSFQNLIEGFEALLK

[7] = target: Tyrosine-protein kinase Lck (Homo sapiens) (UniProt P06239); test: Inhibition of LCK at 10 uM after 60 mins by TR-FRET assay
Sequence of Tyrosine-protein kinase Lck (Homo sapiens) (P06239 2-509 limits assumed): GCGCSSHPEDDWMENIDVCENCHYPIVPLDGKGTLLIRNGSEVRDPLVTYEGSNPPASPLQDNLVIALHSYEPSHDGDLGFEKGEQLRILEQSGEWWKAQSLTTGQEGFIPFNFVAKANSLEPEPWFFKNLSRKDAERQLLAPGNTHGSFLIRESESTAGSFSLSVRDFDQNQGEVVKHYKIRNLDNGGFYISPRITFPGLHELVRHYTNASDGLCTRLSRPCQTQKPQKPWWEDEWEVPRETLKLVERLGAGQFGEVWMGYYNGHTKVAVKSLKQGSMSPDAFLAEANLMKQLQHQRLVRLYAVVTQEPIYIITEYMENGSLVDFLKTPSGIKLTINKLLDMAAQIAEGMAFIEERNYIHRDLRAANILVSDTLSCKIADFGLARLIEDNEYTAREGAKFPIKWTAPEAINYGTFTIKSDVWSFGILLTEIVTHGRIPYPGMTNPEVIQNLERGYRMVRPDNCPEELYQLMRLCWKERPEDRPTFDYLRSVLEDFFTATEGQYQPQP

[8] = target: Serine/threonine-protein kinase MARK2 (Homo sapiens) (UniProt Q7KZI7); test: Inhibition of MARK2 at 10 uM after 60 mins by TR-FRET assay
Sequence of Serine/threonine-protein kinase MARK2 (Homo sapiens) (Q7KZI7 whole entry): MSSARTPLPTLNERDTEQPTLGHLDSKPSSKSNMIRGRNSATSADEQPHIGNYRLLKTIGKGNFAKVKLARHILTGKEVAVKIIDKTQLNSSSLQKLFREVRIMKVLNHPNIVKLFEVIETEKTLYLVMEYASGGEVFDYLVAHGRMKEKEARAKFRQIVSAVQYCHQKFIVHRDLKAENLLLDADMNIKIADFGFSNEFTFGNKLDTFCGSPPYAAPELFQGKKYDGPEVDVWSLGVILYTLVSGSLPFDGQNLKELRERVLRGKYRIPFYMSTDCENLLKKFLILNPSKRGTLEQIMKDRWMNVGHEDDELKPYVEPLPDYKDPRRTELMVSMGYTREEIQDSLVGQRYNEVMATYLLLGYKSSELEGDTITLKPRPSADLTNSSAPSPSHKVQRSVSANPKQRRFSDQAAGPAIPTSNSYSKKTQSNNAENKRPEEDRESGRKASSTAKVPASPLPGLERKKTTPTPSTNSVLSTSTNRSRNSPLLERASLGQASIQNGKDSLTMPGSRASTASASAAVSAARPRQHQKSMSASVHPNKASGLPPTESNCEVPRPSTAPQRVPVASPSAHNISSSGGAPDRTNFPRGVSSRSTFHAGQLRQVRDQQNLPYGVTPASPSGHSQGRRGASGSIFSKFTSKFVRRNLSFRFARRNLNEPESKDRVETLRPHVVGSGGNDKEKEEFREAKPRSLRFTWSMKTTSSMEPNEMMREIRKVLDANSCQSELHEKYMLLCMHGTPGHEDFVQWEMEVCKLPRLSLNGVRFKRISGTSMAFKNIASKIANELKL

[9] = target: Serine/threonine-protein kinase PAK 4 (Homo sapiens) (UniProt O96013); test: Inhibition of PAK4 at 10 uM after 60 mins by TR-FRET assay
Sequence of Serine/threonine-protein kinase PAK 4 (Homo sapiens) (O96013 whole entry, looked up): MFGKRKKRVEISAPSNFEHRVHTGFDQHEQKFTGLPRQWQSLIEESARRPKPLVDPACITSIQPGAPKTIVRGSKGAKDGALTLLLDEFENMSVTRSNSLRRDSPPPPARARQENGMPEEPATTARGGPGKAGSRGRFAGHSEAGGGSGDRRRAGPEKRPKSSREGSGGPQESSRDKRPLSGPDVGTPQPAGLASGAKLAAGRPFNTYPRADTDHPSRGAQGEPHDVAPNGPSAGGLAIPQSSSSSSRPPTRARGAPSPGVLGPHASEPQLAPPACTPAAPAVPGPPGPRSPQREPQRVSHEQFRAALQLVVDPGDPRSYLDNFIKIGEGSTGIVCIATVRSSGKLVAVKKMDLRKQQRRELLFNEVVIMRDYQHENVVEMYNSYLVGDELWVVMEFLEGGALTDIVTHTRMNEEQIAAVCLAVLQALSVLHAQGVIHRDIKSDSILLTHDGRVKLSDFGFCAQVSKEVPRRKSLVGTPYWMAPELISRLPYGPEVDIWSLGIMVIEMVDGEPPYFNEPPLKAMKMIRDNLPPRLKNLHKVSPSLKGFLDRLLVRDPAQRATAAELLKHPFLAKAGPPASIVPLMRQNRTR

[10] = target: cAMP-dependent protein kinase catalytic subunit alpha (Homo sapiens) (UniProt P17612); test: Inhibition of PRKACA at 10 uM after 60 mins by TR-FRET assay
[11] = target: Mitogen-activated protein kinase 14 (Homo sapiens, UniProt Q16539); test: Inhibition of recombinant p38alpha after 60 mins by TR-FRET assay
Sequence of Mitogen-activated protein kinase 14 (Q16539 whole entry): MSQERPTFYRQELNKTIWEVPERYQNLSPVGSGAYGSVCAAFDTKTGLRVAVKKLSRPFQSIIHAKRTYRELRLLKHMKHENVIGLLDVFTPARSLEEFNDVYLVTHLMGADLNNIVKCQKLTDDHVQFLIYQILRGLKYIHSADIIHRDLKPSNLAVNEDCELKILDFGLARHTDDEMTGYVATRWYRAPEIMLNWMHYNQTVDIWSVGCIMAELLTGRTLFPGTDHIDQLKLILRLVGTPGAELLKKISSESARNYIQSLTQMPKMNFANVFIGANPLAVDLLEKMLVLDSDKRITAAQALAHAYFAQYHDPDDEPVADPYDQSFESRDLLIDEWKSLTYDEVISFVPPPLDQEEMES

[12] = Neuroprotective activity in human cortical neurons assessed as inhibition of amyloid-beta-induced toxicity after 2 to 3 days; assay type: functional; conditions: cortical neurone
[13] = Apparent permeability of the compound from apical to basolateral direction in MDCK2 cells at 5 uM after 120 mins; assay type: ADME, cell-based, Canis lupus familiaris, MDCK-II; conditions: dog, MDCK
[14] = Oxidative metabolic stability in mouse liver microsomes assessed as compound remaining at 2 uM after 30 mins; assay type: ADME, Microsome; conditions: read-out: Stability
[15] = Oxidative metabolic stability in human liver microsomes assessed as compound remaining at 2 uM after 30 mins; assay type: ADME, Microsome; conditions: read-out: Stability
[16] = target: Serine/threonine-protein kinase 16 (Homo sapiens) (UniProt O75716); test: Inhibition of STK16 at 10 uM after 60 mins by TR-FRET assay
Sequence of Serine/threonine-protein kinase 16 (Homo sapiens) (O75716 whole entry): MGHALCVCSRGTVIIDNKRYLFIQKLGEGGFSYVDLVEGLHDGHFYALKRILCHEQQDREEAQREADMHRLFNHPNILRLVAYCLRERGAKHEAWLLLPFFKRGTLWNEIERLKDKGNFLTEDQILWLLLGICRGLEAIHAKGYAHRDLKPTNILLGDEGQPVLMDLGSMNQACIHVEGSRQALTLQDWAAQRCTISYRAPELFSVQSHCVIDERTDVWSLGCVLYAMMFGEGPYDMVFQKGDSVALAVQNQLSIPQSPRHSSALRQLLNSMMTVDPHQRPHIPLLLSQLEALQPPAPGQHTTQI

[17] = target: T3, Dual specificity protein kinase TTK (Homo sapiens) (UniProt P33981); test: Inhibition of TTK at 10 uM after 60 mins by TR-FRET assay
T3 sequence (whole entry): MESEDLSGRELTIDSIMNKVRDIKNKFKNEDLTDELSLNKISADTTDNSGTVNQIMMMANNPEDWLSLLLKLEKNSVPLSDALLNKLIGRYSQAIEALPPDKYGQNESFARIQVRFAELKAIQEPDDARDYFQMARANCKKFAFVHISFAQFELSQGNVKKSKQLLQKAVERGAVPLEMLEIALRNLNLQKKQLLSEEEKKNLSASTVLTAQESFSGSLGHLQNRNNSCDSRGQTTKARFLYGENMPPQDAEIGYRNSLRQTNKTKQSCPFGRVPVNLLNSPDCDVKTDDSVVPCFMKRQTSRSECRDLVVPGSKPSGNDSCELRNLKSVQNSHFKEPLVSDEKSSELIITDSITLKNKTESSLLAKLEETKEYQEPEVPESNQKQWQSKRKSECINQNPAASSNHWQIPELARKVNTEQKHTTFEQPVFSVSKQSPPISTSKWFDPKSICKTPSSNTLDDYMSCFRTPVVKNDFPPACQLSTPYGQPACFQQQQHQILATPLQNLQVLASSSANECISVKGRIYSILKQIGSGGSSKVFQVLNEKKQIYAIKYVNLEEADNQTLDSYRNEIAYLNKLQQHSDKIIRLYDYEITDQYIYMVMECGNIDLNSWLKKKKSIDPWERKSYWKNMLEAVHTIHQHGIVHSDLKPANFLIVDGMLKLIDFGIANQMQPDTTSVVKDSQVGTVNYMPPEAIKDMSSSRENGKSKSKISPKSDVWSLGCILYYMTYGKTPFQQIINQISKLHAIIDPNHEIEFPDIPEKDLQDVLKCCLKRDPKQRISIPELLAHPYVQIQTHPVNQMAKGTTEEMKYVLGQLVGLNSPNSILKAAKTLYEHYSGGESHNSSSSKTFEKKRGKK

[18] = Efflux ratio, ratio of permeability from apical to basolateral in MDCK2 cells over expressing MDR1 in presence of P-gp inhibitor to permeability from apical to basolateral in MDCK2 cells over expressing MDR1 in absence of P-gp inhibitor at 5 uM after 120 mins; assay type: ADME, cell-based, Canis lupus familiaris; conditions: dog, mdck-ii, 2 h

Sequence of Mitogen-activated protein kinase 10 (P53779 whole entry): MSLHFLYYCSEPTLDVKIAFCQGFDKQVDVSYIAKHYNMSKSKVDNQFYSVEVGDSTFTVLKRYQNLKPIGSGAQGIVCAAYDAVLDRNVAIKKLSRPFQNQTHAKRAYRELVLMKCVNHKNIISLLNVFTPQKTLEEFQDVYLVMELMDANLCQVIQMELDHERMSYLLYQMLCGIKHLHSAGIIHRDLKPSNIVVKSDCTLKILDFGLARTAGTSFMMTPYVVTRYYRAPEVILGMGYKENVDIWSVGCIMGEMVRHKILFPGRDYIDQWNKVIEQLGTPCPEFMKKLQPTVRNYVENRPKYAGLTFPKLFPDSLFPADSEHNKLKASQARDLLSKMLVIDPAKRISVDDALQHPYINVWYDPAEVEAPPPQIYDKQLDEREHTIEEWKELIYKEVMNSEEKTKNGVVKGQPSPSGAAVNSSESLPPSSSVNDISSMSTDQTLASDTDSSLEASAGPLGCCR

SMILES	residual activity [1] [%]	IC50 [2] [nM]	inhibition [3] [%]	inhibition [4] [%]	inhibition [5] [%]	inhibition [6] [%]	inhibition [7] [%]	inhibition [8] [%]	inhibition [9] [%]	inhibition [10] [%]	IC50 [11] [nM]	EC50 [12] [nM]	Papp A→B at 2 h, 5 µM [13] [×10⁻⁶ cm/s]	remaining at 0.5 h, 2 µM [14] [%]	remaining at 0.5 h, 2 µM [15] [%]	inhibition [16] [%]	inhibition [17] [%]	Ratio [18]
S=c1[nH]nc(-c2ccncc2)n1-c1ccc2ccccc2c1	107																	
O=c1n(Cc2ccncc2)nc(-c2ccnc(NC3CCCCC3)c2)n1-c1ccc2ccccc2c1		29	-5	-9	3	-4	9	0	-1	6	> 50000	12000	8.1	48	2			
O=c1[nH]nc(-c2ccnc(NC3CCOCC3)c2)n1-c1ccc2ccccc2c1		85	30		6	-3	-3	4		6	> 50000		15.7	12	73	38	44	12
O=c1n(Cc2ccccn2)nc(-c2ccnc(NC3CCOCC3)c2)n1-c1ccc2ccccc2c1		54	2	-9	2		-2	-2		2	> 50000		18.5	1.4	40	-9	0	1.4
O=c1n(C2CCOCC2)nc(-c2ccnc(NC3CCCCC3)c2)n1-c1ccc2ccccc2c1			0	-4	4	1	-6	0	27	13	> 50000						3	
O=c1[nH]nc(-c2ccnc(NC3CCCCC3)c2)n1-c1ccc2ccccc2c1		24	17	-5	7	1	-10	1	-2	3	> 50000	> 50000	0.9	2.6	57	-1	10	2.6
O=c1[nH]nc(-c2ccnc(NC3CCCOC3)c2)n1-c1ccc2ccccc2c1 (configuration not stated)		32	10	-9	22	1	4	1	69	47	> 50000					21	30	

Reference: ChEMBL document CHEMBL1641539 (Bioorg Med Chem Lett, 2011)
